Test results: ChEMBL document CHEMBL1201862, “PubChem BioAssay data set” (2004)
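Briefly, cells in 96-well plates were exposed to five compound concentrations for 48 h, and endpoints were estimated by linear interpolation. Abbreviation: GI50, concentration required for 50% inhibition of growth.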 Active and inactive are the calls of the source. Rule as the data show it: active = GI50 up to about 1.1 µM and inactive = higher.

Tests used:
Assay in all cases: NCI tumour cell line growth inhibition, 48 h
786-0 = test system: 786-0
A549 = test system: A549
ACHN = test system: ACHN
BT-549 = test system: BT-549
CAKI-1 = test system: CAKI-1
CCRF-CEM = test system: CCRF-CEM
COLO 205 = test system: COLO 205
DU-145 = test system: DU-145
EKVX = test system: EKVX
HCT-116 = test system: HCT-116
HCT-15 = test system: HCT-15
HL-60 = test system: HL-60
HOP-62 = test system: HOP-62
HOP-92 = test system: HOP-92
HT-29 = test system: HT-29
Hs-578T = test system: Hs-578T
IGROV-1 = test system: IGROV-1
K562 = test system: K562
KM12 = test system: KM12
LOX IMVI = test system: LOX IMVI
M14 = test system: M14
MCF7 = test system: MCF7
MDA-MB-435 = test system: MDA-MB-435
MDA-N = test system: MDA-N
MOLT-4 = test system: MOLT-4
Malme-3M = test system: Malme-3M
NCI-H226 = test system: NCI-H226
NCI-H23 = test system: NCI-H23
NCI-H460 = test system: NCI-H460
NCI-H522 = test system: NCI-H522
NCI/ADR-RES = test system: NCI/ADR-RES
OVCAR-3 = test system: OVCAR-3
OVCAR-4 = test system: OVCAR-4
OVCAR-5 = test system: OVCAR-5
OVCAR-8 = test system: OVCAR-8
PC-3 = test system: PC-3
RPMI-8226 = test system: RPMI-8226
SF-268 = test system: SF-268
SF-295 = test system: SF-295
SK-MEL-28 = test system: SK-MEL-28
SK-MEL-2 = test system: SK-MEL-2
SK-MEL-5 = test system: SK-MEL-5
SK-OV-3 = test system: SK-OV-3
SN12C = test system: SN12C
SNB-19 = test system: SNB-19
SNB-75 = test system: SNB-75
SR = test system: SR
SW-620 = test system: SW-620
T47D = test system: T47D
TK-10 = test system: TK-10
U-251 = test system: U-251
UACC-257 = test system: UACC-257
UACC-62 = test system: UACC-62
UO-31 = test system: UO-31
A498 = test system: A498
HCC 2998 = test system: HCC 2998
MDA-MB-231 = test system: MDA-MB-231
SF-539 = test system: SF-539

In the case of CC12CCCC3(CC(=O)C(C)(C)C3C(=O)C1)C2 (stereo not given), the GI50 (786-0) is reported as > 100 µM (inactive), the GI50 (A549) is reported as > 100 µM (inactive) and the GI50 (ACHN) is reported as > 100 µM (inactive). For the same compound, the GI50 (BT-549) was > 100 µM (inactive), the GI50 (CAKI-1) was > 100 µM (inactive) and the GI50 (CCRF-CEM) was > 100 µM (inactive). The GI50 (COLO 205) was > 100 µM (inactive), the GI50 (DU-145) was > 100 µM (inactive) and the GI50 (EKVX) was > 100 µM (inactive). For the same compound, the GI50 (HCT-116) was > 100 µM (inactive), the GI50 (HCT-15) was over 100 µM and the GI50 (HL-60) was > 100 µM (inactive). The GI50 (HOP-62) was > 100 µM (inactive), the GI50 (HOP-92) was > 100 µM (inactive) and the GI50 (HT-29) was > 100 µM (inactive). The GI50 (Hs-578T) was > 100 µM (inactive), the GI50 (IGROV-1) was > 100 µM (inactive) and the GI50 (K562) was > 100 µM (inactive). For the same compound, the GI50 (KM12) was > 100 µM (inactive), the GI50 (LOX IMVI) was > 100 µM (inactive) and the GI50 (M14) was > 100 µM (inactive). The GI50 (MCF7) was > 100 µM (inactive), the GI50 (MDA-MB-435) was > 100 µM (inactive) and the GI50 (MDA-N) was > 100 µM (inactive). The GI50 (MOLT-4) was > 100 µM (inactive), the GI50 (Malme-3M) was > 100 µM (inactive) and the GI50 (NCI-H226) was > 100 µM (inactive). The GI50 (NCI-H23) was > 100 µM (inactive), the GI50 (NCI-H460) was > 100 µM (inactive) and the GI50 (NCI-H522) was > 100 µM (inactive). For the same compound, the GI50 (NCI/ADR-RES) was > 100 µM (inactive), the GI50 (OVCAR-3) was > 100 µM (inactive) and the GI50 (OVCAR-4) was > 100 µM (inactive). The GI50 (OVCAR-5) was > 100 µM (inactive), the GI50 (OVCAR-8) was > 100 µM (inactive) and the GI50 (PC-3) was > 100 µM (inactive). The GI50 (RPMI-8226) was > 100 µM (inactive), the GI50 (SF-268) was > 100 µM (inactive) and the GI50 (SF-295) was > 100 µM (inactive). The GI50 (SK-MEL-28) was > 100 µM (inactive), the GI50 (SK-MEL-2) was > 100 µM (inactive) and the GI50 (SK-MEL-5) was > 100 µM (inactive). For the same compound, the GI50 (SK-OV-3) was > 100 µM (inactive), the GI50 (SN12C) was > 100 µM (inactive) and the GI50 (SNB-19) was > 100 µM (inactive). For the same compound, the GI50 (SNB-75) was > 100 µM (inactive), the GI50 (SR) was > 100 µM (inactive) and the GI50 (SW-620) was > 100 µM (inactive). The GI50 (T47D) was > 100 µM (inactive), the GI50 (TK-10) was > 100 µM (inactive) and the GI50 (U-251) was > 100 µM (inactive). The GI50 (UACC-257) was > 100 µM (inactive), the GI50 (UACC-62) was > 100 µM (inactive) and the GI50 (UO-31) was > 100 µM (inactive).

In the case of CC(/C=C/c1ccccc1)=N\NC(N)=S, the GI50 (786-0) is reported as 34 µM (inactive), the GI50 (A498) is reported as 22.2 µM (inactive) and the GI50 (A549) is reported as 47.5 µM (inactive). For the same compound, the GI50 (ACHN) was 38 µM (inactive), the GI50 (BT-549) was 29.9 µM (inactive) and the GI50 (CAKI-1) was 35.7 µM (inactive). The GI50 (CCRF-CEM) was 49.7 µM (inactive), the GI50 (COLO 205) was 20.5 µM (inactive) and the GI50 (DU-145) was 34.4 µM (inactive). For the same compound, the GI50 (EKVX) was 17.7 µM (inactive), the GI50 (HCC 2998) was 21.6 µM (inactive) and the GI50 (HCT-116) was 35.7 µM (inactive). The GI50 (HCT-15) was 27.4 µM, the GI50 (HL-60) was 15.1 µM (inactive) and the GI50 (HOP-62) was > 100 µM (inactive). The GI50 (HOP-92) was > 100 µM (inactive), the GI50 (HT-29) was 56.6 µM (inactive) and the GI50 (IGROV-1) was 21 µM (inactive). The GI50 (KM12) was 28.3 µM (inactive), the GI50 (LOX IMVI) was > 100 µM (inactive) and the GI50 (M14) was 26.5 µM (inactive). The GI50 (MCF7) was 33 µM (inactive), the GI50 (MDA-MB-231) was 34.6 µM (inactive) and the GI50 (MDA-MB-435) was 28.1 µM (inactive). The GI50 (MDA-N) was 29.6 µM (inactive), the GI50 (MOLT-4) was 24.4 µM (inactive) and the GI50 (Malme-3M) was 45.7 µM (inactive). For the same compound, the GI50 (NCI-H226) was 80 µM (inactive), the GI50 (NCI-H23) was 74 µM (inactive) and the GI50 (NCI-H460) was 61.2 µM (inactive). For the same compound, the GI50 (NCI/ADR-RES) was 27.9 µM (inactive), the GI50 (OVCAR-3) was 24.5 µM (inactive) and the GI50 (OVCAR-5) was 58.5 µM (inactive). The GI50 (OVCAR-8) was 39 µM (inactive), the GI50 (PC-3) was 90.8 µM (inactive) and the GI50 (RPMI-8226) was 33.7 µM (inactive). For the same compound, the GI50 (SF-268) was 61.7 µM (inactive), the GI50 (SF-295) was 21.5 µM (inactive) and the GI50 (SF-539) was 31.7 µM (inactive). For the same compound, the GI50 (SK-MEL-28) was > 100 µM (inactive), the GI50 (SK-MEL-5) was 38.5 µM (inactive) and the GI50 (SK-OV-3) was 45.4 µM (inactive). For the same compound, the GI50 (SN12C) was 42.1 µM (inactive), the GI50 (SNB-19) was 24 µM (inactive) and the GI50 (SR) was 23.2 µM (inactive). For the same compound, the GI50 (SW-620) was 50.4 µM (inactive), the GI50 (T47D) was 11.8 µM (inactive) and the GI50 (TK-10) was 39.4 µM (inactive). The GI50 (U-251) was 40.5 µM (inactive), the GI50 (UACC-257) was 47.9 µM (inactive) and the GI50 (UO-31) was 32.1 µM (inactive).
